Values belong to the molecule of their own block, whether it stands above or below them. Activity calls are given as the source filed them.
Columns and labels:
[1] = human group III sPLA2 inhibitors, dose response, biochemical, QFRET, IC50 (AID 743457);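 further: green fluorescence rise as the enzyme cleaves BODIPY PC-A2 in liposomes; potency for inhibition of the enzyme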
[2] = cytotoxicity toward NIH3T3 fibroblasts, dose response, counter-screen, cell-based, ATP luminescence, mouse fibroblasts (AID 2010); type: functional;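 further: cells exposed to compound for about 90 hours before reading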
[3] = inhibitors of intracellular T. cruzi replication, confirmation, NIH3T3 host cells, beta-gal luminescence (AID 2044); type: functional, cell-based;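 further: intracellular parasites grown in NIH/3T3 mouse fibroblasts as host cells; luminescent beta-galactosidase reporter signal from transgenic T. cruzi replicating inside host cells; inhibitors lower the luminescence signal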
[4] = Counterscreen for antagonists of the human trace amine associated receptor 1 (hTAAR1): Fluorescence-based cell-based high throughput dose response assay to identify nonselective Ga16 antagonists.; type: functional
[5] = biological target: T1, Trace amine-associated receptor 1 (Homo sapiens, UniProt Q96RJ0); assay: Fluorescence-based cell-based high throughput dose response assay to identify antagonists of the human trace amine associated receptor 1 (TAAR1).; type: functional
T1 sequence (Q96RJ0 whole entry): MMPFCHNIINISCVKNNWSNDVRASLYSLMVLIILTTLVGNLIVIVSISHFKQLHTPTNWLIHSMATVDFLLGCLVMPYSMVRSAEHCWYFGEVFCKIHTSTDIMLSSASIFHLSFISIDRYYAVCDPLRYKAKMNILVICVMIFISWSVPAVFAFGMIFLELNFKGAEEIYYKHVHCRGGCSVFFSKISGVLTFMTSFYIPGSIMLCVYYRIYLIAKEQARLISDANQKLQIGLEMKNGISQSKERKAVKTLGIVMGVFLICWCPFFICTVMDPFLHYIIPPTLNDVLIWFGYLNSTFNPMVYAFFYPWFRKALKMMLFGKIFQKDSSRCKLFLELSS

[6] = Counterscreen for […] of the human trace amine associated receptor 1 (TAAR1): Fluorescence-based cell-based high throughput dose response assay to identify nonselective Ga16 agonists.; type: functional
[7] = biological target: T1, Trace amine-associated receptor 1; assay: Counterscreen for antagonists of the human trace amine associated receptor 1 (hTAAR1): Fluorescence-based cell-based high throughput dose response assay to identify TAAR1 Agonists.; type: functional
[8] = Counterscreen for activators of the function of SWI/SNF related, matrix associated, actin dependent regulator of chromatin, subfamily a, member 2 (SMARCA2, BRM): Luminescence-based cell-based high throughput dose response assay to identify non-selective compounds using the VP16 reporter assay.; type: functional
[9] = biological target: SWI/SNF-related matrix-associated actin-dependent regulator of chromatin subfamily A member 2 (Homo sapiens, UniProt P51531); assay: Luminescence-based cell-based high throughput dose response assay to identify activators of the function of SWI/SNF related, matrix associated, actin dependent regulator of chromatin, subfamily a, member 2 (SMARCA2, BRM).; type: functional
Sequence of SWI/SNF-related matrix-associated actin-dependent regulator of chromatin subfamily A member 2 (P51531 whole entry): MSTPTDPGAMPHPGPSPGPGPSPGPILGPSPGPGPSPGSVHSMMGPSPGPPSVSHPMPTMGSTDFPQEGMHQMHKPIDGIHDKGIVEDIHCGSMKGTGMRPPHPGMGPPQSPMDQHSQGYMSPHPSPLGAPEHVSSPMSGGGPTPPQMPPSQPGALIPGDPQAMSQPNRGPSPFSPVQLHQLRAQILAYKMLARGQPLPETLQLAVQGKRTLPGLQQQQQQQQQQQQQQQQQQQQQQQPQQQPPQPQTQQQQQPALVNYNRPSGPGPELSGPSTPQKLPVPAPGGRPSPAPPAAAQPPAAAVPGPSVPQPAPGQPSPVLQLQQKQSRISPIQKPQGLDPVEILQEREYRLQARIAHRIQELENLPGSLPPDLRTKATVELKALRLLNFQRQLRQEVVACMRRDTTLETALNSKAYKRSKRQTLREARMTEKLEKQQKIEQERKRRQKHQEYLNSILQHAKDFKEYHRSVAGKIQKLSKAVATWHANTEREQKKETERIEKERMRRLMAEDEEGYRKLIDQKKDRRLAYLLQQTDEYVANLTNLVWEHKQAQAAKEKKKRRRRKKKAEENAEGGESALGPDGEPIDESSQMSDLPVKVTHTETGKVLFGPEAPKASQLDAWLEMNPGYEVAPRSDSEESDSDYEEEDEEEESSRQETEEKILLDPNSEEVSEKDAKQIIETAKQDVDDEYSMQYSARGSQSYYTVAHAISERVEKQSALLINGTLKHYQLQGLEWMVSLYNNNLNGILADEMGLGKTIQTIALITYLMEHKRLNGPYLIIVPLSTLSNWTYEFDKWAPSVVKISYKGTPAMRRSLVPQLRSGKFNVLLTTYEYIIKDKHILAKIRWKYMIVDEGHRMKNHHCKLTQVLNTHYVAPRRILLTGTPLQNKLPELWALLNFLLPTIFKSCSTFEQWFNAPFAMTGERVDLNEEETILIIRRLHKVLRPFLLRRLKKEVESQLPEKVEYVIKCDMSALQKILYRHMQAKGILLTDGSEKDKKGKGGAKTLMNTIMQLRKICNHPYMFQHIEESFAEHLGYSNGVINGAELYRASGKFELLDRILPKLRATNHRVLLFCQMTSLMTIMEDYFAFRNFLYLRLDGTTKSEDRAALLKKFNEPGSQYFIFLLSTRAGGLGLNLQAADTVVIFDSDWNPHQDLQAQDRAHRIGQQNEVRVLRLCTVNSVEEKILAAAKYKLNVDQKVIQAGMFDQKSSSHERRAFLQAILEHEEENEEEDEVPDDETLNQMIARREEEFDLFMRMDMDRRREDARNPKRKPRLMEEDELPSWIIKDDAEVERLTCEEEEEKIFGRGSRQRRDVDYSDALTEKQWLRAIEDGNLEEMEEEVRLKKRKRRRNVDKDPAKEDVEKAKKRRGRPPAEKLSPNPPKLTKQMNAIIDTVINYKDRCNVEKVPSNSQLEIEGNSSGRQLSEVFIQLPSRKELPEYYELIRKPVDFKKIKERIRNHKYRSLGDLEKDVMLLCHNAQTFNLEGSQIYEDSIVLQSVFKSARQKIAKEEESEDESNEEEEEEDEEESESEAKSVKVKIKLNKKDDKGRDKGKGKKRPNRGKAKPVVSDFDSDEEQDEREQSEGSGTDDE

[10] = biological target: T2, Short transient receptor potential channel 4 (Mus musculus, UniProt Q9QUQ5); assay: mouse TRPC4 channel inhibitors, dose response, cell-based, HEK293 TRPC4/mu-opioid, Fluo-4 calcium (AID 434942); type: functional;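 further: potency of inhibitors blocking the TRPC4 calcium response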
T2 sequence (Q9QUQ5 whole entry): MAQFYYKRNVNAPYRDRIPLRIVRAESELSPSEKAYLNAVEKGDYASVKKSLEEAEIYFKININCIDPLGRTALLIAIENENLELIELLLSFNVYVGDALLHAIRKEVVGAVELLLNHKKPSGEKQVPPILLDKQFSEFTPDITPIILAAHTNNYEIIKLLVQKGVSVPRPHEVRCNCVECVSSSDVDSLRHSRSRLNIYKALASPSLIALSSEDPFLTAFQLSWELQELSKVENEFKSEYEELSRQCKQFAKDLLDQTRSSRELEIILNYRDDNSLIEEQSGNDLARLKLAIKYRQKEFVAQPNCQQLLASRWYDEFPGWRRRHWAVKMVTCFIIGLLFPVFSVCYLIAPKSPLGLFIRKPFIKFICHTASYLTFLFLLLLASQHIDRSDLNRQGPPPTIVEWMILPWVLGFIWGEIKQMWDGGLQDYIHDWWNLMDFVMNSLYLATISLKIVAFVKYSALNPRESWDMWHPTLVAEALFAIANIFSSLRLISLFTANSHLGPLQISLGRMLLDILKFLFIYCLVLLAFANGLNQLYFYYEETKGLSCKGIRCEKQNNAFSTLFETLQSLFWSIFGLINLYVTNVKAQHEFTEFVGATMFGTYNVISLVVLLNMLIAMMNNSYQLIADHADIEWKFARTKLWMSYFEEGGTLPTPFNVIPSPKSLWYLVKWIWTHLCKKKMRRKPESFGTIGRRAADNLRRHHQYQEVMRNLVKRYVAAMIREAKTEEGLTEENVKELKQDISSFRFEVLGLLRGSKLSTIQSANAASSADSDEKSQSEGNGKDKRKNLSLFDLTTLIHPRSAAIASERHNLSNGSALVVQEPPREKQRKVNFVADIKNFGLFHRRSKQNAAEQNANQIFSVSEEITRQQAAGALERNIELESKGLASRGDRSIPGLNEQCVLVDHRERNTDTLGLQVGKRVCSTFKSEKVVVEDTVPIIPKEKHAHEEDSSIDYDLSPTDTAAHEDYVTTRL

[11] = HEK293T cytotoxicity, dose response, cytotoxicity control for miR-122 modulator project, cell-based, inhibitor set, cherry-pick, set 2 (AID 720697); type: functional
[12] = biological target: T3, Polyadenylate-binding protein 1 (Homo sapiens, UniProt P11940); assay: PABP1 MLLE–PAM2 binding inhibitor potency, dose response, biochemical, fluorescence polarization, FITC-PAM2 peptide (AID 602259); type: functional; settings: read-out: IC50_Mean
T3 sequence (P11940 whole entry): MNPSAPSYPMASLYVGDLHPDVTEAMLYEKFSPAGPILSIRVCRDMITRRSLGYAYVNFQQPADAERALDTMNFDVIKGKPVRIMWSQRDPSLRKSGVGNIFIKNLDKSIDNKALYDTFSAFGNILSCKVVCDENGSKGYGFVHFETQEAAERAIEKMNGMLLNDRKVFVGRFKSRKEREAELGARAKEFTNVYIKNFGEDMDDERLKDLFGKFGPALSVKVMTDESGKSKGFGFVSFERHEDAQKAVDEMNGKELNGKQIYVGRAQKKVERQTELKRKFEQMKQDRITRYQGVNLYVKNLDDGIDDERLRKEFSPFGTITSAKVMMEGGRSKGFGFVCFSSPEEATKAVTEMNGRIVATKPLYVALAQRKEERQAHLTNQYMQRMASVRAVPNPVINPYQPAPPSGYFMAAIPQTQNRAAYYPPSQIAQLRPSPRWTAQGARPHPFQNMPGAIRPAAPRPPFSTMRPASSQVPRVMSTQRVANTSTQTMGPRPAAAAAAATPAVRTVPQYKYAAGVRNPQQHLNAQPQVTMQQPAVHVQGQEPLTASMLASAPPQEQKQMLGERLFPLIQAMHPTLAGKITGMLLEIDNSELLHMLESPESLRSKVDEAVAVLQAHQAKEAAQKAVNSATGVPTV

[13] = biological target: T3, Polyadenylate-binding protein 1; assay: PABP1 MLLE–PAM2 interaction inhibitors, dose response, miRNA deadenylation inhibitor project, biochemical, fluorescence polarization, Cy5-PAM2 peptide, secondary (AID 602260); type: functional; settings: read-out: IC50_Mean
Caspase-3 = biological target: T4, Caspase-3 (Homo sapiens, UniProt P42574); assay: Dose-response confirmation of uHTS inhibitor hits of Sentrin-Specific Protease 8 in a Caspase-3 Fluorescence assay.; type: functional
T4 sequence (P42574 whole entry): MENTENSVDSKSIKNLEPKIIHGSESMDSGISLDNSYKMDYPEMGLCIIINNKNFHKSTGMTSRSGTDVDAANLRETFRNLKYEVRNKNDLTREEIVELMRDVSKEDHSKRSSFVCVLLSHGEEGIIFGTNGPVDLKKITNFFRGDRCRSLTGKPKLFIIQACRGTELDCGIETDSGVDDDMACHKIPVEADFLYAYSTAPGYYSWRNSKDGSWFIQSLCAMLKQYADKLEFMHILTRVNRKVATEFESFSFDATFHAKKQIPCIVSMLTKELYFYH

[14] = biological target: T5, Sentrin-specific protease 8 (Homo sapiens, UniProt Q96LD8); type: functional
T5 sequence (Q96LD8 whole entry): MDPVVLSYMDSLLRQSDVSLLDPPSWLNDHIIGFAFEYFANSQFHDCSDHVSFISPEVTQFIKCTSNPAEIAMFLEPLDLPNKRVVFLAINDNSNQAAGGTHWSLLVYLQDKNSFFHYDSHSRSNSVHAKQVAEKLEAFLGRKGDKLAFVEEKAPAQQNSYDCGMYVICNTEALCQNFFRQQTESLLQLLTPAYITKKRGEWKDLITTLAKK

[15] = biological target: T5, Sentrin-specific protease 8; type: functional; remark: listed apart in the source
[16] = HEK293T cell viability, dose response, counter-screen for EBV LMP1 inhibitor project, CellTiter-Glo luminescence, dry powder (AID 624372); type: functional, HEK293
P388/ADR = assay: cells; type: functional; settings: Mus musculus
SN12K1 = assay: cells; type: functional; settings: Homo sapiens
P388 = assay: cells; type: functional; settings: Mus musculus
[17] = biological target: T6, Corticotropin-releasing factor receptor 2/Corticotropin-releasing factor-binding protein (Homo sapiens, UniProt P24387+Q13324); assay: Dose Response confirmation of uHTS hits for small molecule antagonists of the CRF-binding protein and CRF-R2 receptor complex.; type: functional; settings: read-out: IC50_Mean
T6 sequence (Q13324 whole entry): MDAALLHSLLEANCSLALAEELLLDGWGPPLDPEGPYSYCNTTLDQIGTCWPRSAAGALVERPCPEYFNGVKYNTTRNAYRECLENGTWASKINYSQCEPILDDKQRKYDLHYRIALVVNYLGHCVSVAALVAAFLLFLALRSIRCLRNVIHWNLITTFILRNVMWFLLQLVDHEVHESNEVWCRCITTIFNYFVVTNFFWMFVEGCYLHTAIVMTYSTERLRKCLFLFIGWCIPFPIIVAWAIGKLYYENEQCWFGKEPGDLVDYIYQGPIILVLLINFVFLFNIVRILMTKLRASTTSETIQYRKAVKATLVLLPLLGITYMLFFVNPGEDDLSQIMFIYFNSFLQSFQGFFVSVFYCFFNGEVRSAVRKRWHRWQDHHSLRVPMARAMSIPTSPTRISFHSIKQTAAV
T6 sequence (P24387 whole entry): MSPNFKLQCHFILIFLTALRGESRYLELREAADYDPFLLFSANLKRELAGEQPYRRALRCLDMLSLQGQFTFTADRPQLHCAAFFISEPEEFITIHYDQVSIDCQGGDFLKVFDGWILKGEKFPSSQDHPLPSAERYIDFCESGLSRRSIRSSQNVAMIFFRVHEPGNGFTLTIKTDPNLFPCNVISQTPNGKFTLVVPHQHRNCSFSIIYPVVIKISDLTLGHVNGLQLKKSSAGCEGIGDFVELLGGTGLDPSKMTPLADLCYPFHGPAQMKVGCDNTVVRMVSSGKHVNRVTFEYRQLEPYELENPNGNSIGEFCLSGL

[18] = biological target: T6, Corticotropin-releasing factor receptor 2/Corticotropin-releasing factor-binding protein; assay: activators of CRF receptor 2 with binding protein – uHTS hits, confirmation (AID 602473); type: functional; settings: read-out: EC50_Mean
[19] = CRF-BP/CRF-R2 complex antagonists, dose response, cell-based, uHTS hits, 384-well (AID 651639); type: functional, Homo sapiens; settings: read-out: IC50_Mean

IC50 [1]: > 122 µM (inactive)
Compound: Cc1cccc(NC(=O)NNC(=O)c2ccc3ccccc3c2O)c1

Compound: CN(CC(=O)Nc1cccc(F)c1)C(=O)c1ccccc1OCC(=O)Nc1cccc(C(F)(F)F)c1
EC50 [2]: > 60 µM (not active) | EC50 [3]: 0.775 µM (active) | IC50 [4]: 13.5 µM (inactive) | IC50 [5]: 6.89 µM (active) | EC50 [6]: > 29.9 µM (inactive) | EC50 [7]: > 29.9 µM (inactive)

Compound: Cn1cc(-c2nc3ccccc3[nH]2)c2ccccc21
EC50 [8]: > 91.2 µM (inactive) | EC50 [9]: > 91.2 µM (inactive) | EC50 [10]: 3.76 µM (active)

Compound: Cn1c(-c2ccc(N)cc2)nc2ccccc21
AC50 [11]: 9.34 µM (active)

IC50 [12]: > 66 µM (inactive) | IC50 [13]: > 66 µM (inactive) | IC50 (Caspase-3): 4.41 µM (active)
Compound: Cc1ccc(N2C(=O)[C@@H]3[C@H](C2=O)C2c4ccccc4C=CN2[C@@H]3C(=O)c2ccco2)cc1 (stereo partly drawn)
IC50 [14]: 5.38 µM (active) | IC50 [15]: 0.785 µM (active)

Compound: C/C(=N\NC(=S)N1CCN(C2CCCCCC2)CC1)c1ccccn1
AbsAC35 [16]: 162.11 µM | GI50 (P388/ADR): < 0.01 µM (active) | GI50 (SN12K1): 0.01 µM (active) | GI50 (P388): < 0.01 µM (active)

IC50 [17]: 5.7 µM (active) | EC50 [18]: > 53 µM (inactive) | IC50 [19]: > 20 µM (inactive)
Compound: COC(=O)C1=C/C=C\CN(C(c2ccccc2)c2ccccc2)/C=C\1C(=O)OC

Reference: ChEMBL document CHEMBL1201862, “PubChem BioAssay data set” (2004)
